Reference: PubChem BioAssay (NCI)
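Dose response: 5 concentrations. Exposure: 48 h. Format: 96-well plates. Endpoint: linear interpolation; highest concentration if not reached. TGI denotes the concentration required for complete inhibition of growth.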

Tests used:
Experiment in all cases: NCI anticancer screen, dose series, 48 h
[1] = system: OVCAR-8 ovarian
[2] = system: CAKI-1 renal
[3] = system: OVCAR-3 ovarian
[4] = system: HCT-15 colon
[5] = system: MOLT-4 leukemia
[6] = system: A498 renal
[7] = system: HCC-2998 colon
[8] = system: OVCAR-4 ovarian
[9] = system: SW-620 colon
[10] = system: U251 CNS
[11] = system: RPMI-8226 leukemia
[12] = system: MCF7 breast
[13] = system: TK-10 renal
[14] = system: PC-3 prostate
[15] = system: EKVX NSCLC
[16] = system: SN12C renal
[17] = system: 786-0 renal
[18] = system: SF-539 CNS
[19] = system: RXF 393 renal
[20] = system: UO-31 renal
[21] = system: MDA-MB-435
[22] = system: OVCAR-5 ovarian
[23] = system: IGROV1 ovarian
[24] = system: K-562 leukemia
[25] = system: LOX IMVI melanoma
[26] = system: M14 melanoma
[27] = system: SF-295 CNS
[28] = system: NCI-H226 lung
[29] = system: COLO 205 colon
[30] = system: SK-MEL-28 melanoma
[31] = system: KM12 colon
[32] = system: MDA-MB-231 breast
[33] = system: HT29 colon
[34] = system: HL-60(TB) leukemia
[35] = system: NCI-H23 lung
[36] = system: SK-MEL-5 melanoma
[37] = system: HOP-62 NSCLC
[38] = system: CCRF-CEM leukemia
[39] = system: UACC-257 melanoma
[40] = system: DU-145 prostate
[41] = system: NCI/ADR-RES ovarian
[42] = system: SF-268 CNS
[43] = system: MALME-3M melanoma
[44] = system: MDA-N
[45] = system: ACHN renal
[46] = system: HCT-116 colon
[47] = system: HS 578T breast
[48] = system: SNB-19 CNS
[49] = system: UACC-62 melanoma
[50] = system: SNB-75 CNS
[51] = system: NCI-H460 lung
[52] = system: A549 NSCLC
[53] = system: SK-OV-3 ovarian
[54] = system: SR leukemia
[55] = system: BT-549 breast
[56] = system: SK-MEL-2 melanoma
[57] = system: HOP-92 NSCLC
[58] = system: NCI-H522 lung
[59] = system: T-47D breast

Molecule `O=C(C(=O)c1cc(-c2ccccc2)nc2ccc3ccccc3c12)c1ccccc1` has a TGI [1] greater than 100 µM, a TGI [2] greater than 100 µM and a TGI [3] greater than 100 µM. The TGI [4] was greater than 100 µM, the TGI [5] was greater than 100 µM and the TGI [6] was greater than 100 µM. It also gave a TGI [7] greater than 100 µM, a TGI [8] of 49.8 µM and a TGI [9] greater than 100 µM. The TGI [10] was greater than 100 µM, the TGI [11] was greater than 100 µM and the TGI [12] was greater than 100 µM. For the same molecule, the TGI [13] was greater than 100 µM, the TGI [14] was greater than 100 µM and the TGI [15] was greater than 100 µM. For the same molecule, the TGI [16] was greater than 100 µM, the TGI [17] was greater than 100 µM and the TGI [18] was greater than 100 µM. The TGI [19] was greater than 100 µM, the TGI [20] was greater than 100 µM and the TGI [21] was greater than 100 µM. It also gave a TGI [22] greater than 100 µM, a TGI [23] greater than 100 µM and a TGI [24] greater than 100 µM. It also gave a TGI [25] greater than 100 µM, a TGI [26] greater than 100 µM and a TGI [27] greater than 100 µM. For the same molecule, the TGI [28] was greater than 100 µM, the TGI [29] was greater than 100 µM and the TGI [30] was greater than 100 µM. For the same molecule, the TGI [31] was greater than 100 µM, the TGI [32] was greater than 100 µM and the TGI [33] was greater than 100 µM. The TGI [34] was 78.7 µM, the TGI [35] was greater than 100 µM and the TGI [36] was greater than 100 µM. The TGI [37] was greater than 100 µM, the TGI [38] was greater than 100 µM and the TGI [39] was greater than 100 µM. The TGI [40] was greater than 100 µM, the TGI [41] was greater than 100 µM and the TGI [42] was greater than 100 µM. The TGI [43] was greater than 100 µM, the TGI [44] was greater than 100 µM and the TGI [45] was greater than 100 µM. It also gave a TGI [46] of 39 µM, a TGI [47] of 81.4 µM and a TGI [48] greater than 100 µM. It also gave a TGI [49] greater than 100 µM, a TGI [50] of 40.7 µM and a TGI [51] greater than 100 µM. The TGI [52] was greater than 100 µM, the TGI [53] was greater than 100 µM and the TGI [54] was greater than 100 µM. It also gave a TGI [55] greater than 100 µM.
`CCOC(=O)NC(NCC(O)c1ccccc1)(C(F)(F)F)C(F)(F)F` (configuration not stated) gave a TGI [2] greater than 100 µM, a TGI [56] greater than 100 µM and a TGI [3] greater than 100 µM. For the same molecule, the TGI [4] was greater than 100 µM, the TGI [5] was greater than 100 µM and the TGI [6] was greater than 100 µM. It also gave a TGI [7] greater than 100 µM, a TGI [57] greater than 100 µM and a TGI [9] greater than 100 µM. It also gave a TGI [10] greater than 100 µM, a TGI [58] greater than 100 µM and a TGI [11] greater than 100 µM. The TGI [12] was greater than 100 µM, the TGI [13] was greater than 100 µM and the TGI [15] was greater than 100 µM. The TGI [16] was greater than 100 µM, the TGI [18] was greater than 100 µM and the TGI [19] was greater than 100 µM. For the same molecule, the TGI [20] was greater than 100 µM, the TGI [21] was greater than 100 µM and the TGI [22] was greater than 100 µM. It also gave a TGI [23] greater than 100 µM, a TGI [24] greater than 100 µM and a TGI [25] greater than 100 µM. The TGI [26] was greater than 100 µM, the TGI [28] was greater than 100 µM and the TGI [30] was greater than 100 µM. It also gave a TGI [31] greater than 100 µM, a TGI [32] greater than 100 µM and a TGI [33] greater than 100 µM. It also gave a TGI [34] greater than 100 µM, a TGI [59] greater than 100 µM and a TGI [35] greater than 100 µM. For the same molecule, the TGI [36] was greater than 100 µM, the TGI [37] was greater than 100 µM and the TGI [38] was greater than 100 µM. The TGI [39] was greater than 100 µM, the TGI [40] was greater than 100 µM and the TGI [42] was greater than 100 µM. For the same molecule, the TGI [43] was greater than 100 µM, the TGI [44] was greater than 100 µM and the TGI [45] was greater than 100 µM. The TGI [46] was greater than 100 µM, the TGI [47] was greater than 100 µM and the TGI [48] was greater than 100 µM. The TGI [49] was greater than 100 µM, the TGI [50] was greater than 100 µM and the TGI [51] was greater than 100 µM. For the same molecule, the TGI [52] was greater than 100 µM, the TGI [53] was greater than 100 µM and the TGI [54] was greater than 100 µM. For the same molecule, the TGI [55] was greater than 100 µM.
